Data published in PubChem BioAssay AID1963833 (Molecular Pharmacology Branch, DTP, NCI, 2024).

System: 883617-216-R-J1-PDC complex spheroid viability
Test: Anticancer human tumor 883617-216-R-J1-PDC patient-derived bladder carcinoma cell line growth inhibition [POLQ]
Details: for IC50: curve of first compound; for viability, T/C: stronger effect = lower value
Protocol: Multicellular complex tumor spheroid response to Polymerase (POL) inhibitors (novobiocin, ART-558, RP6685) in combination with a variety of drugs and investigational agents in selected tumor cell lines
The POL inhibitors (novobiocin, ART-558, and RP6685) were evaluated both individually and in combination with standard of care and investigational anticancer small molecules within a complex spheroid model of solid tumors. . Complex spheroids include a stromal component modeled by human endothelial cells (HUVEC) and fibroblasts modeled by human mesenchymal stem cells (MSCs). The concentration ranges selected for each drug and investigational agent were based upon clinically achievable concentrations if the clinical Cmax of the agent was known.
Compounds. The drugs and investigational agents: novobiocin (NSC847541), ART-558 (NSC835418), RP-6685 (NSC848927), peposertib (NSC802822), ceralasertib (NSC780249), elimusertib (NSC800525), camonsertib (NSC841442), AZD-1390 (NSC803789), olaparib (NSC753686), talazoparib (NSC767125), rucaparib (NSC756644), sotorasib (NSC818433), MRTX-1133 (NSC836407), SN-38 (NSC673596), topotecan (NSC609699), epotoside (NSC141540), doxorubicin (NSC123127), gemcitabine (NSC613327), 5-fluorouracil (NSC19893), paclitaxel (NSC125973), vemurafenib (NSC761431), MSA-2 (NSC828583), SN-011 (NSC837082), adavosertib (NSC754352), prexasertib (NSC758257), carboplatin (NSC241240) and oxaliplatin (NSC266046), were obtained from the National Cancer Institute (NCI) Developmental Therapeutics Program Chemical Repository (21). The FDA-approved anticancer drug set is available from the Developmental Therapeutics Program at https://dtp.cancer.gov/organization/dscb/obtaining/. […] The stock solutions were prepared in dimethyl sulfoxide (DMSO, Sigma-Aldrich, St. Louis, MO, cat. D2650), except for the platinum compounds which were prepared in saline (Quality Biological, Gaithersburg, MD, cat. 114-055-101), at 800-fold the tested concentration and stored at -70 degrees C prior to their use. All drugs and investigational agents were tested over a range starting from a high concentration at or near the clinical Cmax and decreasing in half-log increments. If the clinical Cmax for an agent had not been determined, the highest concentration tested was 10 microM, except for SN-38, which was tested at a high concentration of 1 microM.
Cell Culture. All cells were maintained in an incubator at 37 degrees C and 5% CO2 with 95% humidity. The PDC lines were cultured according to standard operating procedures established by the NCI PDMR (https://pdmr.cancer.gov). Table 3 of the manuscript, lists the cell lines along with the number of the three cell types plated to form the mct-spheroids and media for tumor cell growth. After thawing, all PDC lines, except 997537-175-T-J1-PDC and 415267-285-R-J2-PDC, were cultured in Matrigel-coated flasks prepared with a working solution of 1X Ham's F-12 nutrient mix, without supplementation (Thermo Fisher Scientific, cat. 11765054), 100 U/mL penicillin-streptomycin (Thermo Fisher Scientific, cat. 15140122), and 2.5% Matrigel (Corning Inc., Corning, NY, cat. 354248) for the first three passages. The two PDC lines 997537-175-T-J1-PDC and 415267-285-R-J2-PDC were cultured on uncoated flasks. The 857933-349-R-J2-PDC line was cultured in 6C/Colon 1B media containing advanced DMEM/F-12 (Thermo Fisher Scientific, cat. 12634028), 10 mM HEPES (Thermo Fisher Scientific, cat. 15630080), 1X GlutaMAX supplement (Thermo Fisher Scientific, cat. 35050061), 0.1 mg/mL primocin (InvivoGen, San Diego, CA, cat. ant-pm-2), 10% defined fetal bovine serum, heat inactivated (HyClone Laboratories Inc., Logan, UT, cat. SH30070.03HI), 50% L-WRN conditioned media (ATCC, cat. CRL-3276), 1.25 mM N-Acetyl-L-cysteine (Sigma-Aldrich, cat. A9165), 10 mM nicotinamide (Sigma-Aldrich, cat. N0636), 1X B-27 supplement (Thermo Fisher Scientific, cat. 17504044), 1X N-2 supplement (Thermo Fisher Scientific, cat. […]

[1] = second compound 0.0316 µM, first compound 0.0316 µM
[2] = second compound 0.0316 µM, first compound 0.1 µM
[3] = second compound 0.0316 µM, first compound 0.316 µM
[4] = second compound 0.0316 µM, first compound 1 µM
[5] = second compound 0.1 µM, first compound 0.0316 µM
[6] = second compound 0.1 µM, first compound 0.1 µM
[7] = second compound 0.1 µM, first compound 0.316 µM
[8] = second compound 0.1 µM, first compound 1 µM
[9] = second compound 0.316 µM, first compound 0.0316 µM
[10] = second compound 0.316 µM, first compound 0.1 µM
[11] = second compound 0.316 µM, first compound 0.316 µM
[12] = second compound 0.316 µM, first compound 1 µM
[13] = second compound 1 µM, first compound 0.0316 µM
[14] = second compound 1 µM, first compound 0.1 µM
[15] = second compound 1 µM, first compound 0.316 µM
[16] = second compound 1 µM, first compound 1 µM
[17] = second compound 3.16 µM, first compound 0.0316 µM
[18] = second compound 3.16 µM, first compound 0.1 µM
[19] = second compound 3.16 µM, first compound 0.316 µM
[20] = second compound 3.16 µM, first compound 1 µM
[21] = second compound 10 µM, first compound 0.0316 µM
[22] = second compound 10 µM, first compound 0.1 µM
[23] = second compound 10 µM, first compound 0.316 µM
[24] = second compound 10 µM, first compound 1 µM
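Also: spheroids exposed to compounds for seven days before readout.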
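For viability, T/C in this document: 100% = DMSO vehicle control viability.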

With COc1cccc(OCCCN)c1-c1cc(Nc2cnc(C#N)cn2)n[nH]1 + Nc1ccc(C#CCN(C(=O)Cc2ncc(C(F)(F)F)cc2C(F)(F)F)c2ccc(F)cc2)nn1 the IC50 (second compound 0.0316 µM) was 77.4 nM, the IC50 (second compound 0.1 µM) was 47.2 nM and the IC50 (second compound 0.316 µM) was 87.1 nM. For the same molecule, the IC50 (second compound 1 µM) was 120 nM, the IC50 (second compound 3.16 µM) was 73.3 nM and the IC50 (second compound 10 µM) was 85.6 nM. It also gave a viability, T/C (second compound 0.0316 µM, first compound 0.00316 µM) of 111%, a viability, T/C (second compound 0.0316 µM, first compound 0.01 µM) of 77% and a viability, T/C [1] of 67%. It also gave a viability, T/C [2] of 42.8%, a viability, T/C [3] of 37.7% and a viability, T/C [4] of 35.4%. The viability, T/C (second compound 0.1 µM, first compound 0.00316 µM) was 96.9%, the viability, T/C (second compound 0.1 µM, first compound 0.01 µM) was 95.6% and the viability, T/C [5] was 55.2%. The viability, T/C [6] was 43.6%, the viability, T/C [7] was 41.4% and the viability, T/C [8] was 33.7%. For the same molecule, the viability, T/C (second compound 0.316 µM, first compound 0.00316 µM) was 99.3%, the viability, T/C (second compound 0.316 µM, first compound 0.01 µM) was 91.3% and the viability, T/C [9] was 57.4%. The viability, T/C [10] was 52.6%, the viability, T/C [11] was 40.8% and the viability, T/C [12] was 31.9%. It also gave a viability, T/C (second compound 1 µM, first compound 0.00316 µM) of 95.3%, a viability, T/C (second compound 1 µM, first compound 0.01 µM) of 78.2% and a viability, T/C [13] of 64.8%. It also gave a viability, T/C [14] of 53%, a viability, T/C [15] of 40% and a viability, T/C [16] of 28.6%. It also gave a viability, T/C (second compound 3.16 µM, first compound 0.00316 µM) of 85.9%, a viability, T/C (second compound 3.16 µM, first compound 0.01 µM) of 89.8% and a viability, T/C [17] of 67.1%. The viability, T/C [18] was 39.5%, the viability, T/C [19] was 47.1% and the viability, T/C [20] was 44.5%. The viability, T/C (second compound 10 µM, first compound 0.00316 µM) was 109%, the viability, T/C (second compound 10 µM, first compound 0.01 µM) was 89.8% and the viability, T/C [21] was 63.6%. For the same molecule, the viability, T/C [22] was 48.8%, the viability, T/C [23] was 39.5% and the viability, T/C [24] was 36.2%.

With CCCS(=O)(=O)Nc1ccc(F)c(C(=O)c2c[nH]c3ncc(-c4ccc(Cl)cc4)cc23)c1F + COC1C(OC(N)=O)C(O)C(Oc2ccc3c(O)c(NC(=O)c4ccc(O)c(CC=C(C)C)c4)c(=O)oc3c2C)OC1(C)C the IC50 (second compound 0.0316 µM) was 8230 nM, the IC50 (second compound 0.1 µM) was 9580 nM and the IC50 (second compound 0.316 µM) was > 10000 nM. The IC50 (second compound 1 µM) was 9070 nM, the IC50 (second compound 3.16 µM) was > 10000 nM and the IC50 (second compound 10 µM) was 8990 nM. The viability, T/C [1] was 90.3%, the viability, T/C [2] was 103% and the viability, T/C [3] was 103%. For the same molecule, the viability, T/C [4] was 94.2%, the viability, T/C (second compound 0.0316 µM, first compound 3.16 µM) was 84.6% and the viability, T/C (second compound 0.0316 µM, first compound 10 µM) was 42.9%. The viability, T/C [5] was 105%, the viability, T/C [6] was 119% and the viability, T/C [7] was 108%. The viability, T/C [8] was 105%, the viability, T/C (second compound 0.1 µM, first compound 3.16 µM) was 76.8% and the viability, T/C (second compound 0.1 µM, first compound 10 µM) was 49%. For the same molecule, the viability, T/C [9] was 102%, the viability, T/C [10] was 102% and the viability, T/C [11] was 102%. The viability, T/C [12] was 103%, the viability, T/C (second compound 0.316 µM, first compound 3.16 µM) was 90% and the viability, T/C (second compound 0.316 µM, first compound 10 µM) was 50.1%. For the same molecule, the viability, T/C [13] was 103%, the viability, T/C [14] was 93.9% and the viability, T/C [15] was 106%. It also gave a viability, T/C [16] of 98.5%, a viability, T/C (second compound 1 µM, first compound 3.16 µM) of 100% and a viability, T/C (second compound 1 µM, first compound 10 µM) of 45.3%. It also gave a viability, T/C [17] of 94.8%, a viability, T/C [18] of 88% and a viability, T/C [19] of 103%. For the same molecule, the viability, T/C [20] was 105%, the viability, T/C (second compound 3.16 µM, first compound 3.16 µM) was 96.4% and the viability, T/C (second compound 3.16 µM, first compound 10 µM) was 56.4%. The viability, T/C [21] was 106%, the viability, T/C [22] was 96.7% and the viability, T/C [23] was 97.3%. For the same molecule, the viability, T/C [24] was 103%, the viability, T/C (second compound 10 µM, first compound 3.16 µM) was 93.2% and the viability, T/C (second compound 10 µM, first compound 10 µM) was 45.4%.
